From publication PMC12684298, “The Parkinson's Disease Drug Tolcapone and Analogues are Potent Glycomimetic Lectin Inhibitors of Pseudomonas aeruginosa LecA” (Angewandte Chemie (International Ed. in English), 2025)
“And” between values parts separate entries of the source, which are not always exact repeats. Identical values can stand only once.

Legend:
LecA [1] = target: T1, LecA (Pseudomonas aeruginosa, UniProt Q05097); assay: Library screening using the FP competitive binding assay (three concentrations)
T1 construct: made in house; host or cells: E. coli BL21 (DE3), plasmid pET25pa11
T1 sequence (Q05097 whole entry): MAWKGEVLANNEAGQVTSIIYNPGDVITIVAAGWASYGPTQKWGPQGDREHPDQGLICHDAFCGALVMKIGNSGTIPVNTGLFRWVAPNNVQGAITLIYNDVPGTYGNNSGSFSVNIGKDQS
Description: Next, we screened a library of catechols from F. Hoffmann‐La Roche, the developer of Tolcapone, in the competitive binding assay to establish a structure–activity relationship. To this end, two sets of compounds with a molecular cut‐off of 500 Da were chosen: a first set of 342 compounds contained derivatives of Tolcapone, while a second set of 3222 compounds comprised catechols covering a larger chemical space. […] Tests were run in a 384‐well‐plate format at three concentrations (first set at 125, 32, and 4 µM, second set at 100, 25, and 3 µM) in presence of 10% DMSO and 250 µM 2‐mercaptoethanol to prevent interference by a potential unspecific reactivity of electron‐rich catechols as established earlier.^[ [30] ^]
The screening followed the same assay by Joachim et al.^[2] as described above. Compounds in DMSO (1 µL with the appropriate concentration) were plated using a robot into black 384-well microtiter plates (Greiner Bio-One, Germany, cat no 781900) by the Roche compound handling facility at four replicates per concentration and compound. A mixture of LecA, sulfo-Cy5-Gal and 2-mercaptoethanol in TBS/Ca (20 mM Tris, 147 mM NaCl, 2.6 mM KCl at pH 7.4 supplemented with 1 mM CaCl2) with DMSO was added at HIPS. Final concentrations in both screening rounds were the following: 5 µM LecA, 250 µM 2-mercaptoethanol, 10 nM sulfo-Cy5-Gal and 10% DMSO. Final concentrations of the 342 compounds of the first screening round were 125 µM, 32 µM and 4 µM. The 3222 compounds of the second screening round were tested at final concentrations of 100 µM, 25 µM and 3 µM. The plate was sealed (EASYseal, Greiner Bio-One, cat no 676001), briefly centrifuged and incubated at room temperature in the dark under shaking conditions. Fluorescence intensities were measured after 1 h and 24 h using a PheraStar FS plate reader (BMG Labtech GmbH, Germany) with spectral filters for excitation at 590 nm and emission at 675 nm and polarization was calculated after blank values of 5 µM LecA in TBS/Ca buffer with 250 µM 2-mercaptoethanol and 10% DMSO were subtracted from the test compounds. The data were analysed using the MARS Data Analysis software. […] All stated values are the average including the standard deviation based on three replicates for 100 µM and four replicates in the case of compounds at 125 µM.

LecA [2] = target: T1, LecA; assay: biochemical; assay type: binding
Experimental: Therefore, we focused our attention on commercially available nitro‐catechols. Prominent derivatives are inhibitors of the enzyme catechol‐O‐methyltransferase (COMT) and approved drugs for the treatment of Parkinson's disease. Four commercial COMT inhibitors were thus evaluated in a previously reported competitive binding assay based on fluorescence polarisation (FP, Table 1, Figure 1).^[ [32] ^]
The competitive binding assay was performed in analogy to Joachim et al.^[2] 10 µL of a solution containing LecA (40 µM) and sulfo-Cy5-Gal (20 nM, synthesis described in Kuhaudomlarp, Siebs et al.^[5]) in TBS/Ca buffer (20 mM Tris, 147 mM NaCl, 2.6 mM KCl at pH 7.4 supplemented with 1 mM CaCl2) were distributed in into wells of a black 384-well microtiter plate (Greiner Bio-One, Germany, cat no 781900). Then, 10 µL of serial dilutions of compounds (3 mM to 1.5 µM, dilution factor 0.5) in TBS/Ca with 40% DMSO were added in technical triplicates. Final concentrations after mixing were the following: 1.5 mM – 0.73 µM compound, 20 µM LecA, 10 nM sulfo-Cy5-Gal and 20% DMSO. The plate was sealed (EASYseal, Greiner Bio-One, cat no 676001), briefly centrifuged and incubated at room temperature in the dark under shaking conditions. Fluorescence intensity was measured after 1 h and 4 h using a PheraStar FS plate reader (BMG Labtech GmbH, Germany) with spectral filters for excitation at 590 nm and emission at 675 nm and polarization was calculated after blank values of 20 µM LecA in TBS/Ca buffer with 20% DMSO were subtracted from the test compounds. The data were analysed using the four-parameter variable slope model of the MARS Data Analysis software. The top and bottom plateau were assigned based on the control compound methyl α-d-galactoside and the data was reanalysed with these fixed values. If not mentioned otherwise, the experiment was repeated at least three times for each compound and the average and standard deviation are given. In case Triton X-100 was used it was added to the TBS/Ca buffer before the assay.

LecA [3] = target: T1, LecA; assay: biochemical; assay type: binding; conditions: ITC
Experimental: Isothermal titration calorimetry was performed on a MicroCal PEAQ-ITC (Malvern Panalytical) at 25 °C and 750 rpm stirring. The cell was filled with LecA (75 - 111 µM) in TBS/Ca buffer (20 mM Tris, 147 mM NaCl, 2.6 mM KCl at pH 7.4 supplemented with 1 mM CaCl2) with 20% DMSO and titrated with ligand (0.75 mM or 1.5 mM, 19 injections) in the same buffer. Data were analysed using the one binding site model in the MicroCal PEAQ-ITC analysis software (Malvern Panalytical). The first injection of each titration was excluded and the baseline subtracted for the final figures. Three titration per compound were performed and the average as well as standard deviation are given.

[4] = read-out: Activity [%] (% inhibition relative to 500 µM pNPGal)
[5] = IC50, extended dose-response analysis, 20% DMSO, no 2-mercaptoethanol, three experiments
[6] = individual replicate (Repl. 1-3)

What does the source list for `COc1cc(C(=O)c2ccc(C)cc2)cc([N+](=O)[O-])c1OC` [compound 5]?
Activity [%] (% inhibition relative to 500 µM pNPGal) (LecA [1]; compound 125 µM (marked *), 10% DMSO, 250 µM 2-mercaptoethanol, four replicates): complete lack of activity; inhibition at 125 µM (LecA [1]; [4]): -5.3 ± 7.6%

`Cc1ccc(C(=O)c2ccc(O)c(O)c2)cc1` [compound 6] was tested. Which inhibition at 100 µM (LecA [1]; [4]) did it give?
Its inhibition at 100 µM is 13.8 ± 3.9%.

Which inhibition at 100 µM (LecA [1]; [4]) does the source give for `Cc1ccc(C(=O)c2cc(O)c(O)c(O)c2)cc1` [compound 7] here?
The inhibition at 100 µM was 7.5 ± 4.9%.

With `Cc1ccc(C(=O)c2cc(N)c(O)c(O)c2)cc1` [compound 8] as the molecule, how does the inhibition at 100 µM (LecA [1]; [4]) read?
Its inhibition at 100 µM is 7.9 ± 3.4%.

`Cc1ccc(C(=O)c2cc(O)c(O)c(C(=O)O)c2)cc1` [compound 9] was tested. Which inhibition at 100 µM (LecA [1]; [4]) did it give?
Its inhibition at 100 µM is 2.1 ± 2.9%.

For `CC(=O)Nc1cc(C(=O)c2ccc(C)cc2)cc(O)c1O` [compound 10], which inhibition at 100 µM (LecA [1]; [4]) is on record?
The inhibition at 100 µM was 20.1 ± 2.8%.

For `Cc1ccc(C(=O)c2cc(O)c(O)c(C(N)=O)c2)cc1` [compound 11], which inhibition at 100 µM (LecA [1]; [4]) is on record?
The inhibition at 100 µM was 21.8 ± 3.4%.

Which inhibition at 100 µM (LecA [1]; [4]) does the source give for `Cc1ccc(C(=O)c2cc(O)c(O)c(C#N)c2)cc1` [compound 12] here?
The inhibition at 100 µM was 20.2 ± 4.8%.

Which results are given for `Cc1ccc(C(=O)c2cc(O)c(O)c(-c3nc(C)no3)c2)cc1` [compound 13]?
IC50 (LecA [2]; [5]): 346 ± 36 µM; inhibition at 100 µM (LecA [1]; [4]): 57.7 ± 3.8%

For `Cc1ccc(C(=O)c2cc(O)c(O)c(-c3nnn[nH]3)c2)cc1` [compound 14], which inhibition at 100 µM (LecA [1]; [4]) is on record?
The inhibition at 100 µM was 0.8 ± 8.7%.

What does the source list for `Cc1ccc(C(=O)c2cc([N+](=O)[O-])c(O)c(O)c2Cl)cc1` [compound 15]?
IC50 (LecA [2]; [5]): 58 µM; IC50 (LecA [2]; IC50 in presence of 0.01% Triton X-100, FP assay, 0.01% Triton X-100, one replicate): 67 µM; IC50 (LecA [2]; IC50 in presence of 0.057% Triton X-100, FP assay, 0.057% Triton X-100, one replicate): 56 µM; N (sites) (LecA [3]; average of three titrations): 0.92 ± 0.05 and 0.922; ΔG (LecA [3]; average of three titrations): -6.74 ± 0.14 kcal/mol and -6.74 kcal/mol; ΔH (LecA [3]; average of three titrations): -5.45 ± 0.359 kcal/mol and -5.45 kcal/mol; -TΔS (LecA [3]; [6]): -0.837 kcal/mol and -1.84 kcal/mol and -1.22 kcal/mol; N (sites) (LecA [3]; [6]): 0.947 and 0.957 and 0.862; ΔG (LecA [3]; [6]): -6.6 kcal/mol and -6.88 kcal/mol and -6.74 kcal/mol; ΔH (LecA [3]; [6]): -5.76 kcal/mol and -5.04 kcal/mol and -5.52 kcal/mol; Kd (LecA [3]; 25 °C, 20% DMSO, average of three titrations): 12 µM; Kd (LecA [3]; [6]): 15.1 µM and 9.3 µM and 11.5 µM; inhibition at 100 µM (LecA [1]; [4]): 96.7 ± 4%

For `Cc1noc(-c2cc(O)c(O)c([N+](=O)[O-])c2)n1` [compound 16], which inhibition at 100 µM (LecA [1]; [4]) is on record?
Its inhibition at 100 µM is 9.4 ± 7.5%.

For `Nc1cc(Cl)ccc1-c1nc(-c2cc(O)c(O)c([N+](=O)[O-])c2)cs1` [compound 17], which inhibition at 100 µM (LecA [1]; [4]) is on record?
The inhibition at 100 µM was 15.2 ± 8.7%.
